These results are taken from ChEMBL document CHEMBL4400531, “Structure-Based Design of N-(5-Phenylthiazol-2-yl)acrylamides as Novel and Potent Glutathione S-Transferase Omega 1 Inhibitors” (J Med Chem, 2019).

Molecules are shown by their SMILES.

The nature of series [1]: Metabolic stability in mouse liver microsomes at 1 uM in presence of NADPH incubated for 30 mins by LC-MS/MS analysis. As to conditions: read-out: Stability. It counts as ADME, Microsome.
Series [2] is described as follows: Metabolic stability in mouse liver microsomes at 1 uM in presence of NADPH incubated for 45 mins by LC-MS/MS analysis. The series is classed as ADME, Microsome. To be noted: read-out: Stability.
Series [3] is described as follows: Half life in mouse liver microsomes at 1 uM in presence of NADPH by LC-MS/MS analysis. The series is classed as ADME, Microsome.
Series [4] in a line: Metabolic stability in mouse liver microsomes at 1 uM in presence of NADPH incubated for 0 mins by LC-MS/MS analysis. It counts as ADME, Microsome. To be noted: read-out: Stability.
Series [5] is described as follows: Metabolic stability in human liver microsomes at 1 uM in presence of NADPH incubated for 60 mins by LC-MS/MS analysis. It counts as ADME, Microsome. As to conditions: read-out: Stability.
A short description of series [6]: Metabolic stability in mouse liver microsomes at 1 uM in presence of NADPH incubated for 60 mins by LC-MS/MS analysis. It counts as ADME, Microsome. As to conditions: read-out: Stability.
Series [7] in a line: Stability of the compound in 20% acetonitrile/PBS buffer at room temperature by LC-MS/MS analysis. The series is classed as physicochemical.
Series [8] in a line: Metabolic stability in mouse liver microsomes at 1 uM in presence of NADPH incubated for 15 mins by LC-MS/MS analysis. To be noted: read-out: Stability. It counts as ADME, Microsome.
Series [9] can be described thus: Metabolic stability in human liver microsomes at 1 uM in presence of NADPH incubated for 30 mins by LC-MS/MS analysis. It counts as ADME, Microsome. As to conditions: read-out: Stability.
The nature of series [10]: Metabolic stability in human liver microsomes at 1 uM in presence of NADPH incubated for 10 mins by LC-MS/MS analysis. To be noted: read-out: Stability. The series is classed as ADME, Microsome.
The nature of series [11]: Metabolic stability in human liver microsomes at 1 uM in presence of NADPH incubated for 45 mins by LC-MS/MS analysis. It counts as ADME, Microsome. To be noted: read-out: Stability.
Series [12] can be described thus: Half life in human liver microsomes at 1 uM in presence of NADPH by LC-MS/MS analysis. The series is classed as ADME, Microsome.
Series [13] in a line: Metabolic stability in human liver microsomes at 1 uM in presence of NADPH incubated for 0 mins by LC-MS/MS analysis. The series is classed as ADME, Microsome. As to conditions: read-out: Stability.
A short description of series [14]: Metabolic stability in human liver microsomes at 1 uM in presence of NADPH incubated for 15 mins by LC-MS/MS analysis. The series is classed as ADME, Microsome. As to conditions: read-out: Stability.
Series [15] can be described thus: Metabolic stability in human liver microsomes at 1 uM in presence of NADPH incubated for 5 mins by LC-MS/MS analysis. It counts as ADME, Microsome. As to conditions: read-out: Stability.
Series [16] in a line: Metabolic stability in mouse liver microsomes at 1 uM in presence of NADPH incubated for 5 mins by LC-MS/MS analysis. The series is classed as ADME, Microsome. To be noted: read-out: Stability.
Series [17] in a line: Metabolic stability in mouse liver microsomes at 1 uM in presence of NADPH incubated for 10 mins by LC-MS/MS analysis. To be noted: read-out: Stability. The series is classed as ADME, Microsome.
For the next series, the system named is HCT-116. As to the kind of experiment: cells. To be noted: Homo sapiens, HCT-116, 72 h.
The test system of another series is HT-29. The series can be described thus: cells. To be noted: Homo sapiens, HT-29, 72 h.
In series [18] the target is T1, Glutathione S-transferase omega-1 (Homo sapiens, UniProt P78417).
T1 sequence (P78417 whole entry): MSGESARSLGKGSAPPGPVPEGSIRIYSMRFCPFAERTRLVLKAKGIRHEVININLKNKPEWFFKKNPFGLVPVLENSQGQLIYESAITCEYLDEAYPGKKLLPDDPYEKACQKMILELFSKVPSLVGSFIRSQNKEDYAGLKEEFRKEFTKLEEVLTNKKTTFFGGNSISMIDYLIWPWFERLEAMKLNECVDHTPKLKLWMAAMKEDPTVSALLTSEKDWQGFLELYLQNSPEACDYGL
As to the kind of experiment: Inhibition of CMFDA binding to human N-terminal 6x-His-tagged GSTO1-1 preincubated for 30 mins followed by CMFDA addition and measured after 30 mins by in-gel fluorescence binding assay.

Description for HCT-116: Antiproliferative activity against human HCT116 cells after 72 hrs by MTT assay

Consider `C=CC(=O)N(Cc1cc(C)no1)c1nc(-c2ccccc2O)cs1`, for which the remaining at 0.5 h, 1 µM was 8% in series [1] and 3.7% in series [9]. Besides, the remaining at 0.75 h, 1 µM in [2] turned out to be 4%; in [11], 3.7%. Further, the t1/2 in series [3] worked out at 1.81 min; in series [12], 1.89 min. Further, the remaining at 0 h, 1 µM in [4] and in series [13] was 100% each time. In addition, the remaining at 1 h, 1 µM in series [5] was determined as 3.7%; in [6] it was 4%. Besides, in series [7], the Stability result is “Stable”. Also, the remaining at […], 1 µM came out at 12% in [8] and 3.7% in series [14]. Moreover, the remaining at 10 min, 1 µM stood at 7.41% in [10] and 12% in series [17]. The remaining at 5 min, 1 µM turned out to be 14.8% in series [15] and 16% in series [16].
Consider `C=CC(=O)Nc1nc(-c2ccc(O)cc2)cs1`, for which the IC50 is 7.1 to 12.5 µM in the series on HCT-116, 6.1 to 13.5 µM in the series with HT-29 and greater than 10 µM in [18].
Regarding `C=CC(=O)Nc1cnn(Cc2ccccc2)c1`, the values for the half-maximal inhibitory concentration (IC50) (in the series with HCT-116; in the series on HT-29; in series [18]) were greater than 30 µM, greater than 30 µM and greater than 10 µM, respectively.
As for `COC(=O)/C=C/CNc1ccc(Cl)c(S(=O)(=O)N(C)C)c1`, the IC50 in the series on HCT-116 is greater than 30 µM; in the series with HT-29, greater than 30 µM; in series [18], greater than 10 µM.
In the case of `C=CC(=O)Nc1nc(-c2ccc(Cl)cc2)cs1`, the t1/2 is given as 3.21 min in series [3] and 9.52 min in [12]. Further, the Stability result in [7] is recorded as “Stable”.
On to `C=CC(=O)Nc1nc(-c2ccccc2OC)cs1`, for which the half-inhibitory concentration (IC50) in the series with HCT-116 is greater than 30 µM; in the series on HT-29, greater than 30 µM; in series [18], greater than 10 µM.
Turning to `C=CC(=O)N1CCC(c2ccccc2)CC1`, the figures for the IC50 (with HCT-116; with HT-29; in series [18]) were greater than 30 µM, greater than 30 µM and greater than 10 µM, respectively.
In the case of `C=CC(=O)Nc1cnn(-c2ccccc2)c1`, the IC50 is greater than 30 µM with HCT-116, greater than 30 µM with HT-29 and greater than 10 µM in series [18].
Consider `C=CC(=O)N1CCC(Cc2ccccc2)CC1`, for which the IC50 was greater than 30 µM in the series on HCT-116, greater than 30 µM in the series on HT-29 and greater than 10 µM in [18].
